Source: ChEMBL document CHEMBL3227980, “Optically pure (+)-nicotine from (+/-)-nicotine and biological comparisons with (-)-nicotine” (J Med Chem, 1979)

Assays:
in vivo = settings: ICR, mouse, iv
[1] = Toxicity in iv dosed ICR mouse assessed as lethality; settings: in vivo

Row | SMILES | selectivity ratio (in vivo) | LD50 [1] [mg/kg]
1 | CN1CCC[C@H]1c1cccnc1.O=C(O)C(O)C(O)C(=O)O.O=C(O)C(O)C(O)C(=O)O | 7.24 | 0.38
2 | CN1CCC[C@@H]1c1cccnc1.O=C(O)C(O)C(O)C(=O)O.O=C(O)C(O)C(O)C(=O)O | – | 2.75
